Source: patent US9260504B2, “N- and C-terminal substituted antagonistic analogs of GH-RH” (University of Miami, priority 2008, dated 2016)

Legend:
Assay type in all cases: in vivo
[1] = tested on: PC-3 human hormone-independent prostate cancer; assay: PC-3 human prostate cancer xenografts in nude mice, Experiment 4; details: for Tumor growth after 28 days (%) / Tumor growth after 46 days (%) / Inhibition (%): 2 μg/day s.c.; for Inhibitory effect on PC-3 tumors compared with reference peptide JMR-132: 2 μg/day vs JMR-132 10 μg/day, after 46 days of treatment
Method: Male nude mice were implanted s.c. with 3 mm^3 pieces of PC-3 human hormone-independent prostate cancer tissue on both flanks. When tumors reached a volume of approximately 50 mm^3, the mice were divided into 12 experimental groups with 8 to 10 animals in each group and received single daily injections for 28 days as follows: 1. Control (vehicle solution); 2. JMR-132 (10 μg/day s.c.); 3. Peptide 11113 (2 μg/day s.c.); 4. Peptide 11119 (2 μg/day s.c.); 5. Peptide 11209 (2 μg/day s.c.); 6. Peptide 11313 (2 μg/day s.c.); 7. Peptide 11408 (2 μg/day s.c.); 8. Peptide 11435 (2 μg/day s.c.); 9. Peptide 11457 (2 μg/day s.c.); 10. Peptide 11459 (2 μg/day s.c.); 11. Peptide 11469 (2 μg/day s.c.); 12. Peptide 11491 (2 μg/day s.c.).
(§1) Tumor volumes were measured once a week. The experiment was ended on day 28 by sacrificing the mice under Isoflurane anesthesia. Resulting tumors were cleaned, weighed, and snap-frozen until further analyses. Statistical analyses of the measurement results were done by two-tailed t-test, p<0.05 being considered significant.
All experimental details of Experiment 4 are the same as for Experiment 3, with the following difference. When tumors reached a volume of approximately 50 mm^3, the mice were divided into 11 experimental groups with 8 to 10 animals in each group and received single daily injections for 46 days as follows: 1. Control (vehicle solution); 2. JMR-132 (10 μg/day s.c.); 3. Peptide 11123 (2 μg/day s.c.); 4. Peptide 11125 (2 μg/day s.c.); 5. Peptide 11213 (2 μg/day s.c.); 6. Peptide 11433 (2 μg/day s.c.); 7. Peptide 11473 (2 μg/day s.c.); 8. Peptide 11485 (2 μg/day s.c.); 9. Peptide 11497 (2 μg/day s.c.); 10. Peptide 11499 (2 μg/day s.c.); 11. Peptide 11521 (2 μg/day s.c.). Tumor volumes were measured once a week. The experiment was ended on day 46 by sacrificing the mice under Isoflurane anesthesia. Resulting tumors were cleaned, weighed, and snap-frozen until further analyses. Statistical analyses of the measurement results were done by two-tailed t-test, p<0.05 being considered significant.

[2] = tested on: Human ovarian cancer SKOV3 cells; assay: SKOV3 ovarian cancer xenografts in nude mice; details: 5 μg/day s.c.
Description: Human ovarian cancer SKOV3 cells growing exponentially were implanted info five female nude mice by subcutaneous (s.c.) injection of 10^7 cells in both flanks. Tumors That resulted after approximately 4 weeks in donor animals were then aseptically dissected and mechanically minced. Three mm^3 pieces of tumor tissue were transplanted subcutaneously into experimental animals with a trocar needle. When tumors reached an appropriate size (approximately 50 mm^3), mice were randomly divided into […]. The first was the control group, the second group was treated with daily s.c. injections of 5 μg P-11313, the third group was treated with daily s.c. injections of 5 μg P-11604, the fourth group was treated with daily s.c. injections of 5 μg P-11610. Tumor volume (length×width×height×0.5236) was measured every week and mean tumor volumes of each group were compared by Student's t-test. The study lasted 49 days. One week after end of treatment, mice were killed under anesthesia, tumors were snap frozen and stored at −70° C.

[3] = tested on: PC-3 human hormone-independent prostate cancer; assay: PC3 androgen-independent prostate cancer xenografts in nude mice (Example XIV)
Method: Male nude mice were implanted s.c. with 3 mm^3 pieces of PC-3 human hormone-independent prostate cancer tissue on both flanks. When tumors reached a volume of approximately 50 mm^3, the mice were divided into 8 experimental groups with 8 to 10 animals in each group and received single daily injections for 28 days as follows: 1. Control (vehicle solution); 2. P-11513 2 μg/day; 3. P-11602 2 μg/day; 4. P-11602 1 μg/day; 5. P-11604 2 μg/day; 6. P-11606 2 μg/day; 7. P-11610 2 μg/day; 8. P-11610 1 μg/day.
as §1

[4] = tested on: HT human diffuse mixed B cell lymphoma cell line; assay: HT human diffuse mixed B cell lymphoma xenografts in nude mice; details: 5 μg/day s.c.
Method: The aim of this study was to find out the tumor inhibitor effect of the latest GHRH antagonists (Peptide 11602, Peptide 11604, Peptide 11606, and Peptide 11610) at the dose of 5 μg/day on HT human diffuse mixed B cell lymphoma cell line. Female nude mice were xenografted subcutaneously with approximately 3 mm^3 pieces of HT malignant tumor tissue. When tumors reached the mean volume of approximately 120 mm^3, the animals were randomly assigned into different groups. Tumor volumes and body weight were measured once a week. At the end of the experiment mice were anesthetized and sacrificed. Tumors were carefully excised, weighed and were stored at −80° C. until further investigation. Organs and tumor samples were preserved in 10% formaldehyde.

Substance: [(Dca-Amc)^0-Tyr^1, D-Arg^2, Cpa^6, Ala^8, Har^9, Tyr(Me)^10, His^11, Orn^12, Orn^15, His^20, Orn^21, Nle^27, D-Arg^28, Har^29-Ada^30]hGH-RH(1-29)NH2 [Peptide 11521]
- Tumor growth after 28 days (%) [1]: 877%
- Tumor growth after 46 days (%) [1]: 2427%
- Inhibition (%) ([1]; after 28 days): 35.86%
- Inhibition (%) ([1]; after 46 days): 27.11%

Substance: [PhAc^0-Tyr^1, D-Arg^2, (Phe(F)5)^6, Ala^8, Har^9, Tyr(Me)^10, His^11, Orn^12, Abu^15, His^20, Orn^21, Nle^27, D-Arg^28, Har^29-Ada^30]hGH-RH(1-29)NH2 [Peptide 11499]
- Tumor growth after 28 days (%) [1]: 782%
- Tumor growth after 46 days (%) [1]: 2178%
- Inhibition (%) ([1]; after 28 days): 42.86%
- Inhibition (%) ([1]; after 46 days): 34.59%

Substance: [Oct^0-Tyr^1, D-Arg^2, Cpa^6, Ala^8, His^9, Tyr(Et)^10, His^11, Orn^12, Abu^15, His^20, Orn^21, Nle^27, D-Arg^28, Har^29-Ada^30]hGH-RH(1-29)NH2 [Peptide 11213]
- Tumor growth after 28 days (%) [1]: 651%
- Tumor growth after 46 days (%) [1]: 1144%
- Inhibitory effect on PC-3 tumors compared with reference peptide JMR-132 [1]: had a more potent inhibitory effect than reference peptide JMR-132
- Inhibition (%) ([1]; after 28 days): 52.41%
- Inhibition (%) ([1]; after 46 days): 65.65%

Substance: [Nac^0-Tyr^1, D-Arg^2, Cpa^6, Ala^8, Har^9, Tyr(Me)^10, His^11, Orn^12, Abu^15, His^20, Orn^21, Nle^27, D-Arg^28, Har^29-AE2A^30] hGH-RH(1-29)NH2 [Peptide 11433]
- Tumor growth after 28 days (%) [1]: 956%
- Tumor growth after 46 days (%) [1]: 1890%
- Inhibition (%) ([1]; after 28 days): 30.15%
- Inhibition (%) ([1]; after 46 days): 43.23%

Substance: PhAc^0-Tyr^1, D-Arg^2, Cpa^6, Ala^8, Har^9, (Phe(F)5)^10, His^11, Orn^12, Abu^15, His^20, Orn^21, Nle^27, D-Arg^28, Har^29-Ada^30]hGH-RH(1-29)NH2 [Peptide 11610]
- TU growth (%) ([2]; day 0 (baseline)): 100%
- TU growth (%) ([2]; day 7): 137.44%
- TU inhibition (%) ([2]; day 7): 35.89%
- TU growth (%) ([2]; day 14): 150.1%
- TU inhibition (%) ([2]; day 14): 46.44%
- TU growth (%) ([2]; day 21): 239.14%
- TU inhibition (%) ([2]; day 21): 56.00%
- TU growth (%) ([2]; day 28): 204.07%
- TU inhibition (%) ([2]; day 28): 75.76%
- TU growth (%) ([2]; day 35): 242.05%
- TU inhibition (%) ([2]; day 35): 72.89%
- TU growth (%) ([2]; day 42): 273.83%
- TU inhibition (%) ([2]; day 42): 77.85%
- TU growth (%) ([2]; day 49): 383.93%
- TU inhibition (%) ([2]; day 49): 69.82%
- TUMOR GROWTH (%) ([3]; 1 μg/day, day 0 (baseline)): 100%
- TUMOR GROWTH (%) ([3]; 1 μg/day, day 7): 195.49%
- Tumor inhibition (%) ([3]; 1 μg/day, day 7): 40.99%
- TUMOR GROWTH (%) ([3]; 1 μg/day, day 14): 302.30%
- Tumor inhibition (%) ([3]; 1 μg/day, day 14): 48.84%
- TUMOR GROWTH (%) ([3]; 1 μg/day, day 21): 549.94%
- Tumor inhibition (%) ([3]; 1 μg/day, day 21): 53.79%
- TUMOR GROWTH (%) ([3]; 1 μg/day, day 28): 740.17%
- Tumor inhibition (%) ([3]; 1 μg/day, day 28): 60.15%
- TUMOR GROWTH (%) ([3]; 2 μg/day, day 0 (baseline)): 100%
- TUMOR GROWTH (%) ([3]; 2 μg/day, day 7): 132.24%
- Tumor inhibition (%) ([3]; 2 μg/day, day 7): 60.08%
- TUMOR GROWTH (%) ([3]; 2 μg/day, day 14): 289.25%
- Tumor inhibition (%) ([3]; 2 μg/day, day 14): 51.05%
- TUMOR GROWTH (%) ([3]; 2 μg/day, day 21): 466.31%
- Tumor inhibition (%) ([3]; 2 μg/day, day 21): 60.82%
- TUMOR GROWTH (%) ([3]; 2 μg/day, day 28): 631.89%
- Tumor inhibition (%) ([3]; 2 μg/day, day 28): 65.98%
- TUMOR GROWTH (%) ([4]; day 1 (baseline)): 100%
- Tumor inhibition (%) ([4]; day 1 (baseline)): 0%
- Tumor volume (mm^3) ([4]; day 1 (baseline)): 90.42 mm^3
- TUMOR GROWTH (%) ([4]; day 7): 183.36%
- Tumor inhibition (%) ([4]; day 7): 40.01%
- Tumor volume (mm^3) ([4]; day 7): 145.53 mm^3
- TUMOR GROWTH (%) ([4]; day 14): 307.98%
- Tumor inhibition (%) ([4]; day 14): 36.21%
- Tumor volume (mm^3) ([4]; day 14): 194.57 mm^3
- TUMOR GROWTH (%) ([4]; day 21): 361.18%
- Tumor inhibition (%) ([4]; day 21): 53.78%
- Tumor volume (mm^3) ([4]; day 21): 250.24 mm^3
- TUMOR GROWTH (%) ([4]; day 28): 519.79%
- Tumor inhibition (%) ([4]; day 28): 42.02%
- Tumor volume (mm^3) ([4]; day 28): 428.99 mm^3

Substance: [(Ac-Amc)^0-Tyr^1, D-Arg^2, Cpa^6, Ala^8, Har^9, Tyr(Me)^10, His^11, Orn^12, Abu^15, His^20, Orn^21, Nle^27, D-Arg^28, Har^29-Ada^30]hGH-RH(1-29)NH2 [Peptide 11497]
- Tumor growth after 28 days (%) [1]: 872%
- Tumor growth after 46 days (%) [1]: 1658%
- Inhibitory effect on PC-3 tumors compared with reference peptide JMR-132 [1]: had a more potent inhibitory effect than reference peptide JMR-132
- Inhibition (%) ([1]; after 28 days): 36.25%
- Inhibition (%) ([1]; after 46 days): 50.22%

Substance: [Dca^0-Tyr^1, D-Arg^2, Cpa^6, Ala^8, Har^9, Tyr(Me)^10, His^11, Orn^12, Abu^15, Har^20, Orn^21, Nle^27, D-Arg^28, Har^29]hGH-RH(1-29)NH2 [Peptide 11513]
- TUMOR GROWTH (%) ([3]; 2 μg/day, day 0 (baseline)): 100%
- TUMOR GROWTH (%) ([3]; 2 μg/day, day 7): 212.49%
- Tumor inhibition (%) ([3]; 2 μg/day, day 7): 35.86%
- TUMOR GROWTH (%) ([3]; 2 μg/day, day 14): 420.81%
- Tumor inhibition (%) ([3]; 2 μg/day, day 14): 28.79%
- TUMOR GROWTH (%) ([3]; 2 μg/day, day 21): 823.51%
- Tumor inhibition (%) ([3]; 2 μg/day, day 21): 30.80%
- TUMOR GROWTH (%) ([3]; 2 μg/day, day 28): 1420.09%
- Tumor inhibition (%) ([3]; 2 μg/day, day 28): 23.54%
